Data set [1] has as its system Kuming mice. The data set is classed as in vivo, mouse. To be noted: for first phase response of the formalin test (in words) / second phase response of the formalin test (in words): n = 8; for paw biting/licking behaviors after subcutaneous peptide (in words): mouse, in vivo, sc.
Data set [2] relates to NMDAR. To be noted: cited from earlier work.
Data set [3] concerns NMDAR. The settings on record: cited from earlier work. The source holds these as a separate data set.
Data set [4] has as its system female Kuming mice. The settings on record: mouse, in vivo.
In data set [5] the test system is Kuming mice. The format is in vivo, mouse. To be noted: for effect on writhing responses (in words): n = 8; for number of abdominal contortions: mouse, in vivo.
Data set [6] has as its system female mice. The format is in vivo, mouse. The settings on record: for paw withdrawal latency as % of pre-administration values: mouse, in vivo.
For data set [7], the system named is Kuming mice. The settings on record: mouse, in vivo; for edematogenic response after subcutaneous peptide (in words): sc.
The subject of data set [8] is mice. The settings on record: mouse, in vivo.
Data set [9] concerns Kuming mice. To be noted: mouse, in vivo.
For data set [10] the following is noted: in vivo; cited from earlier work.
Data set [11] deals with mice. The settings on record: mouse, in vivo; cited from earlier work.

Several values for one entry are separate records, joined by “and”; a condition that tells them apart may be missing. Equal entries are not always repeated.

For GEγγLGKAQALIRAAYA-NH2 [Ala-con-G], in data set [1], the “first phase response of the formalin test (in words)” value (from here on “first phase response”) is given as “significantly reduced the time spent responding to the afflicted paw” and the “second phase response of the formalin test (in words)” value (“second phase response” below) was “neither Ala-con-G nor con-R[1-17] provided antinociception”. The “components of binding to adult rat brain sections (in words)” value in data set [2] is “only the high-affinity NMDAR-specific component of binding”. The IC50 in data set [3] is 0.18 µM. In data set [4], the “Paw withdrawal latency after peptide administration, 30 min” value (“Paw withdrawal latency … 30 min” for short) is 20.3 ± 8.6 s and 11.9 ± 3.4 s; the “Paw withdrawal latency after peptide administration, 90 min” value (“Paw withdrawal latency … 90 min” for short) is 20.9 ± 5.7 s and 22.4 ± 9.5 s; the “Paw withdrawal latency after peptide administration, 150 min” value (shortened to “Paw withdrawal latency … 150 min”) is 24.6 ± 10.4 s and 17.1 ± 7.5 s; the “Paw withdrawal latency after peptide administration, 240 min” value (“Paw withdrawal latency … 240 min” for short) is 16.1 ± 5.0 s and 20.0 ± 16.1 s. Moreover, in data set [4], the “Paw withdrawal latency before peptide administration” value was 15.3 ± 3.0 s and 11.3 ± 1.9 s; the “antinociception in the hot-plate test (in words)” value (“antinociception” below) is “ineffective at antinociception at all time points examined”. For the same substance, the “effect on writhing responses (in words)” value in data set [5] was “failed to attenuate writhing responses”. The “effect on withdrawal latencies in the CFA model (in words)” value in [6] (n = 8) is recorded as “failed to alter withdrawal latencies”. In data set [7], the “Increase in paw width” value worked out at 0.97 ± 0.05 mm; the “Injected paw width, after formalin injection” value was found to be 2.56 ± 0.05 mm; the “Injected paw width, before formalin injection” value is 1.60 ± 0.02 mm.
Consider GEγγLQKNQγLIRγKSN-NH2 [con-G[γ7K]], for which, in data set [1], the “first phase response” value is given as “significantly reduced the time spent responding to the afflicted paw”. Further, the IC50 in data set [3] is 0.22 µM. For the same substance, in data set [4], the “Paw withdrawal latency … 30 min” value is 11.9 ± 4.3 s and 21.5 ± 12.5 s; the “Paw withdrawal latency before peptide administration” value was 14.9 ± 3.5 s and 15.1 ± 3.9 s. Further, the “effect on writhing responses (in words)” value in [5] is on record as “failed to attenuate writhing responses”.
As to GEγγLQγNQγLIRAKSN-NH2 [con-G[γ14A]], in [3], the IC50 was 0.23 µM. In data set [4], the “Paw withdrawal latency … 30 min” value is listed as 10.0 ± 3.3 s; the “Paw withdrawal latency … 90 min” value is 20.4 ± 14.2 s; the “Paw withdrawal latency … 150 min” value is given as “^ˆ25.4 ± 9.3 s”; the “Paw withdrawal latency … 240 min” value is on record as “^ˆ22.8 ± 8.6 s”. Also, in data set [4], the “Paw withdrawal latency before peptide administration” value is given as 11.3 ± 1.5 s and the “antinociception” value is listed as “ineffective at antinociception at all time points examined”.
As to GEγγLQγNQγLIRAKYN-NH2 [con-G[S16Y]], in data set [1], the “paw biting/licking behaviors after subcutaneous peptide (in words)” value is “did not significantly diminish paw biting/licking behaviors”, the “first phase response” value is given as “significantly reduced the time spent responding to the afflicted paw” and the “second phase response” value is listed as “highly effective in reducing the responses to the afflicted paw”. Further, in data set [2], the “share of peptide associated with a low-affinity, non-receptor site” value is listed as “approximately 80%”. Besides, in data set [3], the IC50 is 0.14 µM and the “increase in potency in the [3H]MK-801 binding assay compared to con-G” value is listed as 3.5 fold. Besides, in [4], the “Paw withdrawal latency before peptide administration” value was 13.4 ± 3.1 s and 9.0 ± 2.1 s; the “antinociception” value was “highest antinociceptive activity”. In addition, in data set [8], the “motor impairment in the rotarod test, comparison of the two peptides (in words)” value is “reverse effect”; the “motor toxicity in the rotarod test relative to saline (in words)” value is given as “some toxicity”; the “rotarod stay time, 60 min versus 240 min test times (in words)” value is reported as “no significant differences”. Besides, in data set [5], the “number of abdominal contortions” value was 6.4 ± 4.6 and the “effect on writhing responses (in words)” value is given as “significantly effective in modulating responses to the acid stimulus”. Further, in data set [6], the “paw withdrawal latency as % of pre-administration values” stood at 80%. Further, the “increase of paw withdrawal latency compared to the day 3 controls” value in data set [6] (n = 8) is approximately 2 s. Further, in [7], the “Increase in paw width” value was 0.76 ± 0.05 mm; the “Injected paw width, after formalin injection” value came to 2.33 ± 0.05 mm; the “Injected paw width, before formalin injection” value is given as 1.57 ± 0.03 mm; the “edematogenic response after subcutaneous peptide (in words)” value was “nor did they reduce the edematogenic response”. For the same substance, in data set [9], the “day 3 paw diameter after peptide injection” value is given as 2.26 ± 0.058 mm and the “day 3 paw diameter before peptide injection” value was 2.36 ± 0.039 mm.
Regarding “con-G[N8A]: NR2B-selective con-G variant (GEEELQEAQELIREKSN; not fully specified; Conantokin-G; UniProt P07231 81-97, looked up, variant N8A)”, in data set [3], the IC50 was 0.49 µM. Further, in [4], the “Paw withdrawal latency … 30 min” value turned out to be 11.6 ± 4.2 s; the “Paw withdrawal latency … 90 min” value stood at 13.5 ± 4.8 s; the “Paw withdrawal latency … 150 min” value was 12.6 ± 2.5 s; the “Paw withdrawal latency … 240 min” value was determined as 13.8 ± 3.1 s. Besides, in [4], the “Paw withdrawal latency before peptide administration” value is 11.1 ± 2.5 s and the “antinociception” value is reported as “ineffective at antinociception at all time points examined”.
As for conantokin-G [con-G], in [1], the “paw biting/licking behaviors after subcutaneous peptide (in words)” value is given as “did not significantly diminish paw biting/licking behaviors”, the “first phase response” value is “significantly reduced the time spent responding to the afflicted paw” and the “second phase response” value is “highly effective in reducing the responses to the afflicted paw”. In addition, the IC50 in [3] is 0.48 µM. In addition, the “median toxic dose, rotarod test” value in [10] is “ca. 300 pmol”. Besides, in [4], the “Paw withdrawal latency … 30 min” value was 12.2 ± 4.5 s and 12.6 ± 12.5 s; the “Paw withdrawal latency before peptide administration” value is 11.6 ± 2.1 s and 11.6 ± 2.5 s. Besides, the “number of abdominal contortions” value in data set [5] turned out to be 8.3 ± 6.0. Further, the “percent inhibition of responses, first phase of the formalin test” value in data set [11] was 25-35%. Moreover, the “paw withdrawal latency as % of pre-administration values” in [6] came to 80%. Moreover, in data set [6] (n = 8), the “increase of paw withdrawal latency compared to the day 3 controls” value is “approximately 1 s”. Besides, in data set [7], the “Increase in paw width” value is listed as 0.83 ± 0.03 mm; the “Injected paw width, after formalin injection” value amounted to 2.38 ± 0.03 mm; the “Injected paw width, before formalin injection” value came to 1.55 ± 0.02 mm; the “edematogenic response after subcutaneous peptide (in words)” value is reported as “nor did they reduce the edematogenic response”.
As for conantokin-T [con-T], in data set [3], the IC50 is 0.4 µM. Further, the “median toxic dose, rotarod test” value in data set [10] was “ca. 300 pmol”. In data set [4], the “Paw withdrawal latency … 30 min” value is 13.1 ± 3.1 s; the “Paw withdrawal latency … 90 min” value is listed as 15.4 ± 4.8 s; the “Paw withdrawal latency … 150 min” value is on record as 16.5 ± 4.6 s; the “Paw withdrawal latency … 240 min” value came out at 16.8 ± 4.5 s. Besides, in [4], the “Paw withdrawal latency before peptide administration” value turned out to be 11.9 ± 2.9 s and the “antinociception” value is reported as “without effect”. Further, the “percent inhibition of responses, first phase of the formalin test” value in [11] is on record as 25-35%.

The values are drawn from paper PMC2621068 (Neuropeptides, 2008).
